Each structure is given as a SMILES string.

In turn, `Cc1nc(C(F)(F)F)ccc1-c1nc2c(C)cccc2c(=O)n1C(C)C` [Compound 5, 8-methyl-3-(1-methylethyl)-2-[2-methyl-6-(trifluoromethyl)-3-pyridinyl]-4(3H)-quinazolinone] yielded a melting point of 132 to 135 °C.

A word on the melting point: it is the temperature, or range, at which the solid turns liquid.

Source of the values: patent US20040110777A1, “Quinazolinones and pyridinylpyrimidinones for controlling invertebrate pests” (priority 2003, published 2004).
